# Experimental data reported in paper PMC7111628 (Antiviral Research, 2020).
# Where two headings read alike, the source gives them in different places.
# Legend:
# [1] = MTT cytotoxicity assay in Hep-2 cells; type: cell-based; conditions: human, CC50, Hep-2 cells, MTT assay, concentration required to reduce cell viability by 50%
# [2] = MTT cytotoxicity assay in HeLa cells; type: cell-based; conditions: human, CC50, HeLa cells, MTT assay, concentration required to reduce cell viability by 50%
# HSV-1 (F strain) [3] = assay: Murine intranasal model of HSV pneumonia and encephalitis; type: in vivo, BALB/c mice; conditions: for survival by day 14 post infection: placebo 20%
# HSV-1 (F strain) [4] = assay: CPE inhibition assay, HSV-1; conditions: for IC50: read-out: HSV-1 IC50
# HSV-2 (333 strain) [5] = assay: CPE inhibition assay, HSV-2; conditions: for IC50: read-out: HSV-2 IC50
# Vero cells = assay: MTT cytotoxicity assay in Vero cells; type: cell-based; conditions: 50 to 400 μM, 24 h incubation
# Hep-2 cells = assay: MTT cytotoxicity assay in Hep-2 cells; type: cell-based; conditions: 50 to 400 μM, MTT, 24 h incubation
# HeLa cells = assay: MTT cytotoxicity assay in HeLa cells; type: cell-based; conditions: 50 to 400 μM, MTT, 24 h incubation
# HSV-1 gD protein [6] = molecular target: T1, HSV-1 gD protein (Human herpesvirus 1, UniProt Q69091); assay: Surface plasmon resonance; type: binding, Herpes simplex virus type 1
# phosphorylated EGFR = assay: Western blot of phosphorylated EGFR in HSV-2 infected cells; type: cell-based; conditions: HSV-2 (MOI = 1.0) infected cells, virus control about 2.4
# phosphorylated PI3K = assay: Western blot of phosphorylated PI3K in HSV-2 infected cells; type: cell-based; conditions: HSV-2 (MOI = 1.0) infected cells, virus control about 1.9
# phosphorylated Akt = assay: Western blot of phosphorylated Akt in HSV-2 infected cells; type: cell-based; conditions: HSV-2 (MOI = 1.0) infected cells, virus control about 12.1
# HSV-1 (F strain) [7] = assay: Virus yield in culture media by plaque assay, HSV-1; type: cell-based, Herpes simplex virus type 1; conditions: Vero cells; concentration >1.25 μM; 24 h p.i.; p < 0.05
# HSV-2 (333 strain) [8] = assay: Virus yield in culture media by plaque assay, HSV-2; type: cell-based, Herpes simplex virus type 2; conditions: Vero cells; concentration >1.25 μM; 24 h p.i.; p < 0.05
# HSV-1 [9] = assay: Plaque reduction assay, HSV-1; type: cell-based, Herpes simplex virus type 1; conditions: pretreatment of HSV with 1.25-20 μM; Vero cells
# HSV-2 [10] = assay: Plaque reduction assay, HSV-2; type: cell-based, Herpes simplex virus type 2; conditions: pretreatment of HSV with 1.25-20 μM; Vero cells
# HSV-2 [11] = assay: Cell fusion inhibition assay; type: cell-based, Herpes simplex virus type 2; conditions: 30, 15 μM during 5-7 h p.i.; HSV-2 (MOI = 3.0) infected Vero cells
# gD protein = assay: Western blot of virus gD expression during 5-7 h p.i.; type: cell-based, Herpes simplex virus type 2; conditions: treatment during 5-7 h p.i.
# HSV-1 gD protein [12] = molecular target: T1, HSV-1 gD protein; assay: DARTS assay, gD; type: binding, Herpes simplex virus type 1; conditions: 60 μM; pronase 3 μg/ml; HSV-1 infected Vero cell lysates
# [13] = system: gB, gC, and gH/gL proteins; assay: DARTS assay, other virus surface glycoproteins; type: binding, Herpes simplex virus type 1; conditions: 60 μM; HSV-1 infected Vero cell lysates
# HVEM and nectin-1 = assay: DARTS assay, cellular surface receptors of HSV-1; type: binding; conditions: 60 μM; HSV-1 infected Vero cell lysates
# HSV-1 gD protein [14] = molecular target: T1, HSV-1 gD protein; assay: HSV-1 gD binding to Vero cells, cell ELISA; type: cell-based, Herpes simplex virus type 1
# [15] = system: EGFR, PI3K and Akt proteins; assay: Western blot of total EGFR, PI3K and Akt in HSV-2 infected Vero cells; type: cell-based; conditions: 2.5, 5, 10, 20 μM for 2 h
# EGFR/PI3K/Akt pathway [16] = assay: Western blot of phosphorylated EGFR, PI3K and Akt in non-infected Vero cells; type: cell-based; conditions: 2.5, 5, 10, 20 μM for 2 h
# EGFR/PI3K/Akt pathway [17] = type: cell-based; conditions: 5, 10, 20 μM; Vero cells treated with HSV-1 gD protein (2 μg/ml); vs gD treated control, p < 0.05
# HSV-1 gD mRNA = assay: Real-time RT-PCR of gD mRNA, HSV-1 infected Vero cells; type: cell-based, Herpes simplex virus type 1; conditions: 5, 10, 20 μM; HSV-1 (MOI = 1.0) infected Vero cells, 8 h; p < 0.05
# HSV-2 gD mRNA = assay: Real-time RT-PCR of gD mRNA, HSV-2 infected Vero cells; type: cell-based, Herpes simplex virus type 2; conditions: 5, 10, 20 μM; HSV-2 (MOI = 1.0) infected Vero cells, 8 h; p < 0.05
# [18] = system: HIV reverse transcriptase; conditions: ref Pasetto et al., 2014; cited from earlier work
# HSV-1 [19] = conditions: Vero cells; ref Lyu et al., 2005; cited from earlier work
# [20] = system: SARS-CoV helicase protein; conditions: cited from earlier work
# HSV-1 [21] = assay: Time-of-addition assay, HSV-1; conditions: Vero cells, 24 h p.i.
# HSV-2 [22] = assay: Time-of-addition assay, HSV-2; conditions: Vero cells, 24 h p.i.
# HSV-1 (F strain) [23] = assay: Indirect immunofluorescence assay of ICP27 in HSV-1 infected Vero cells; conditions: pretreatment of virus with 10 μM before infection
# [24] = 10 mg·kg-1 intraperitoneal, day 4 p.i.
# [25] = 20 μM for 1 h before infection, p < 0.01
# T1 sequence (Q69091 26-394): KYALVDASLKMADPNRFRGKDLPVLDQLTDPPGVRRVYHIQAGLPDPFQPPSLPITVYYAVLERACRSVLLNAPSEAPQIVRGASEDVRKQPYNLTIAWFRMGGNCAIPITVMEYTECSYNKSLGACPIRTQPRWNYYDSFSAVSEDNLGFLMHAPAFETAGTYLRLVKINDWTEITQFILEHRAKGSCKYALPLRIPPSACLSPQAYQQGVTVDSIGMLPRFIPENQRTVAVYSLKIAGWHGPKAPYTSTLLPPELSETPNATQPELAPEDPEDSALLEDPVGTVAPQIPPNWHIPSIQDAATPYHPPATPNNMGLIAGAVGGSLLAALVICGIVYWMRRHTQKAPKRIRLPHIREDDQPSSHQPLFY
smiles,measurement,setting,value
Nc1nc2c(ncn2COCCO)c(=O)[nH]1 [Acyclovir],CC50 at 24 h,[1],898 ± 72.6 µM
same,CC50 at 24 h,[2],830 ± 40 µM
same,survival by day 14 post infection,HSV-1 (F strain) [3]; 10 mg·kg-1 intraperitoneal once daily for five days,90%
same,virus titers in lungs,HSV-1 (F strain) [3]; [24],significant reduction of virus titers
same,virus titers in spinal cord,HSV-1 (F strain) [3]; [24],significant reduction of virus titers
same,HSV-1 SI (CC50/IC50),HSV-1 (F strain) [4]; HeLa cells,75.5
same,HSV-1 SI (CC50/IC50),HSV-1 (F strain) [4]; Hep-2 cells,46.5
same,IC50,"HSV-1 (F strain) [4]; Human alphaherpesvirus 1, HEp-2, 24 h",19.3 ± 2.2 µM
same,IC50,"HSV-1 (F strain) [4]; Human alphaherpesvirus 1, HeLa, 24 h",11 ± 1.2 µM
same,IC50,"HSV-1 (F strain) [4]; Human alphaherpesvirus 1, Vero, 24 h",7.4 ± 0.6 µM
same,HSV-1 SI (CC50/IC50),HSV-1 (F strain) [4]; Vero cells,131.8
same,HSV-2 SI (CC50/IC50),HSV-2 (333 strain) [5]; HeLa cells,37.9
same,HSV-2 SI (CC50/IC50),HSV-2 (333 strain) [5]; Hep-2 cells,31.5
same,IC50,"HSV-2 (333 strain) [5]; Human alphaherpesvirus 2, HEp-2, 24 h",28.5 ± 4.3 µM
same,IC50,"HSV-2 (333 strain) [5]; Human alphaherpesvirus 2, HeLa, 24 h",21.9 ± 3.2 µM
same,IC50,"HSV-2 (333 strain) [5]; Human alphaherpesvirus 2, Vero, 24 h",11.6 ± 2.5 µM
same,HSV-2 SI (CC50/IC50),HSV-2 (333 strain) [5]; Vero cells,84.1
"O=c1c(O)c(-c2cc(O)c(O)c(O)c2)oc2cc(O)cc(O)c12 [Myricetin, 3,5,7-trihydroxy-2-(3,4,5-trihydroxyphenyl)-4-benzopyrone]",cytotoxicity,Vero cells,no significant cytotoxicity
same,CC50 at 24 h,[1],~965 µM
same,cytotoxicity,Hep-2 cells,no significant cytotoxicity
same,CC50 at 24 h,[2],~1150 µM
same,cytotoxicity,HeLa cells,no significant cytotoxicity
same,Kd,HSV-1 gD protein [6],~0.0609 µM
same,level of phosphorylated EGFR,phosphorylated EGFR; 10 μM for 2 h,about 1.4 fold of normal control group
same,level of phosphorylated EGFR,phosphorylated EGFR; 20 μM for 2 h,~0.8 fold of normal control group
same,level of phosphorylated PI3K,phosphorylated PI3K; 5 μM for 2 h,about 1.4 fold of normal control group
same,level of phosphorylated PI3K,phosphorylated PI3K; 10 μM for 2 h,about 1.4 fold of normal control group
same,level of phosphorylated PI3K,phosphorylated PI3K; 20 μM for 2 h,~0.8 fold of normal control group
same,activation of Akt (p-Akt),phosphorylated Akt; 5 μM for 2 h,about 3.9 fold of normal control group
same,activation of Akt (p-Akt),phosphorylated Akt; 10 μM for 2 h,~2.5 fold of normal control group
same,activation of Akt (p-Akt),phosphorylated Akt; 20 μM for 2 h,~1.2 fold of normal control group
same,brain histopathology (HE staining),"HSV-1 (F strain) [3]; 2.5 mg·kg-1, day 4 p.i., comparable to acyclovir (10 mg·kg-1)",only had tiny hyperaemia
same,brain histopathology (HE staining),"HSV-1 (F strain) [3]; 5 mg·kg-1, day 4 p.i.",nearly had no hyperaemia and infiltration of inflammatory cells
same,lung histopathology (HE staining),"HSV-1 (F strain) [3]; 2.5 or 5 mg·kg-1, day 4 p.i.",intact columnar epithelium
same,survival by day 14 post infection,HSV-1 (F strain) [3]; 2.5 or 5 mg·kg-1 intraperitoneal once daily for five days,100%
same,body weight loss during the infection,"HSV-1 (F strain) [3]; 2.5 or 5 mg·kg-1 intraperitoneal once daily for five days, placebo up to 19%",less than 5%
same,survival rates compared to placebo-treated control group,"HSV-1 (F strain) [3]; 2.5 or 5 mg·kg-1 intraperitoneal, p < 0.01",significantly increased survival rates
same,pulmonary virus titers,"HSV-1 (F strain) [3]; myricetin 2.5 or 5 mg·kg-1 intraperitoneal, day 4 p.i., plaque assay, p < 0.05",significantly decreased
same,virus titers in culture media,HSV-1 (F strain) [7],significantly reduced the virus titers
same,virus titers in culture media,HSV-2 (333 strain) [8],significantly reduced the virus titers
same,number of plaques,HSV-1 [9],significantly reduced the number of plaques
same,number of plaques,HSV-2 [10],significantly reduced the number of plaques
same,syncytium formation,HSV-2 [11],markedly blocked syncytium formation
same,expression of virus surface glycoproteins such as gD protein,gD protein,did not obviously influence the expression
same,protection of gD protein from protease digestion,HSV-1 gD protein [12],obviously protected
same,"protection of gB, gC, and gH/gL proteins from protease digestion",[13],could not protect
same,protection of HVEM and nectin-1 from protease digestion,HVEM and nectin-1,could also not be protected
same,"binding of gD to cell surface, pre-incubation of gD protein","HSV-1 gD protein [14]; 5, 10, 20, 40 μM, gD protein 2 μg/mL, dose-dependent",significantly reduced the binding of gD to cell surface
same,"amount of gD protein on cell surface, pretreatment of cells","HSV-1 gD protein [14]; 40, 20, 10, 5 μM for 1 h",did not significantly decrease the amount of gD protein on cell surface
same,"total expression levels of EGFR, PI3K and Akt proteins",[15],did not significantly influence the total expression levels
same,"activation of EGFR, PI3K and Akt proteins",EGFR/PI3K/Akt pathway [16],could not significantly influence the activation
same,"levels of phosphorylated EGFR, PI3K, and Akt proteins",EGFR/PI3K/Akt pathway [17],significantly reduced
same,expression level of gD mRNA,HSV-1 gD mRNA,significantly reduced the expression level of gD mRNA
same,expression level of gD mRNA,HSV-2 gD mRNA,significantly reduced the expression level of gD mRNA
same,activity of HIV reverse transcriptase,[18],inhibited the activity of HIV reverse transcriptase
same,inhibitory effects against HSV-1,HSV-1 [19],moderate inhibitory effects
same,inhibition of SARS-CoV helicase protein,[20],potently inhibited
same,"virus titers, pretreatment of virus",HSV-1 [21]; [25],significantly reduced the virus titers
same,"virus titers, pretreatment of cells",HSV-1 [21]; 20 μM,did not significantly reduce virus titers
same,"virus multiplication, treatment after adsorption","HSV-1 [21]; 20 μM, p < 0.05",obvious inhibition on virus multiplication
same,"virus titers, pretreatment of virus",HSV-2 [22]; [25],significantly reduced the virus titers
same,"virus titers, pretreatment of cells",HSV-2 [22]; 20 μM,did not significantly reduce virus titers
same,"virus multiplication, treatment after adsorption","HSV-2 [22]; 20 μM, p < 0.05",obvious inhibition on virus multiplication
same,expression of ICP27,HSV-1 (F strain) [23],significantly reduced the expression of ICP27
"O=c1c(O)c(-c2ccc(O)c(O)c2)oc2cc(O)cc(O)c12 [quercetinin, reference compound]",inhibitory effects against HSV-1,HSV-1 [19],moderate inhibitory effects
"O=c1cc(-c2ccc(O)cc2)oc2cc(O)c(O)c(O)c12 [scutellarein, reference compound]",inhibition of SARS-CoV helicase protein,[20],potently inhibited
